Source: US20230072421A1, “TARGETED RADIOPHARMACEUTICALS FOR THE DIAGNOSIS AND TREATMENT OF PROSTATE CANCER” (Bayer AS, priority 2019, published 2023)

Biological target: T1, PSMA-expressing LNCaP cells (Homo sapiens, UniProt Q04609)
T1 construct: PSMA-expressing LNCaP cells; endogenous in cells; host or cells: LNCaP
Experiment: Binding competition assay against 3H-PSMA-617 on LNCaP cells
Conditions: for remaining activity at 0.01 µM / remaining activity at 0.1 µM: LNCaP cells, 10 nM 3H-PSMA-617, 2 h at 37° C., triplicates; for remaining activity at 0.01 µM: competing non-radiolabeled compound 10 nM; for remaining activity at 0.1 µM: competing non-radiolabeled compound 100 nM; for competition against 3H-PSMA-617 on PSMA-expressing LNCaP cells (in words): comparison between examples
In short: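 Compounds added to LNCaP cells in growth medium, 2 h at 37 °C, 5% CO2. After two ice-cold PBS washes, cells lysed in 0.3 M NaOH and bound radioactivity measured by liquid scintillation counting.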

T1 sequence (Q04609 whole entry): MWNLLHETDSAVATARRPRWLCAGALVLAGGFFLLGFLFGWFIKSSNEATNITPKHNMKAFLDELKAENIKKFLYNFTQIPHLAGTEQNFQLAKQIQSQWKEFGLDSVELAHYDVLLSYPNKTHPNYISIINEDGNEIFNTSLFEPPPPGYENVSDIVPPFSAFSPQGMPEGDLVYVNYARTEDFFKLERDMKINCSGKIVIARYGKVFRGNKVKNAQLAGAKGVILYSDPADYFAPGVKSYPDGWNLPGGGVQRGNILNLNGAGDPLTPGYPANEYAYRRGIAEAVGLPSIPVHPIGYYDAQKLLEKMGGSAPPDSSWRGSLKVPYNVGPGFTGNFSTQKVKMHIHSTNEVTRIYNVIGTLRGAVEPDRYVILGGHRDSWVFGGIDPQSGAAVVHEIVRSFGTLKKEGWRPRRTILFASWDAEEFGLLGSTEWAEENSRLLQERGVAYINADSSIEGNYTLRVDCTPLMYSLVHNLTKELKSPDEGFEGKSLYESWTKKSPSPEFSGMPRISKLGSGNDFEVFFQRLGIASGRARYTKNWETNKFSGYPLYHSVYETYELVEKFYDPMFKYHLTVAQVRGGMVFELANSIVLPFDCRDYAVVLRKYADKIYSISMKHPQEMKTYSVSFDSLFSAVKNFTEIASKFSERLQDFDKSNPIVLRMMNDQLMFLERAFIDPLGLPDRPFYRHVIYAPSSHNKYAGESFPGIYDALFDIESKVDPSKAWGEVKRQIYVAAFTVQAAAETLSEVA

Row | remaining activity at 0.01 µM | remaining activity at 0.1 µM | SMILES | competition against 3H-PSMA-617 on PSMA-expressing LNCaP cells (in words)
1 | 75% | 22% | O=C(O)CC[C@H](NC(=O)N[C@@H](CCCCNC(=O)[C@@H](Cc1ccc2cnccc2c1)NC(=O)[C@H]1CC[C@H](CNC(=O)CN2CCN(CC(=O)O)CCN(CC(=O)O)CCN(CC(=O)O)CC2)CC1)C(=O)O)C(=O)O [Example 44-B, (3R,10S,14S)-3-[(isoquinolin-6-yl)methyl]-1,4,12-trioxo-1-[(1r,4S)-4-({2-[4,7,10-tris(carboxymethyl)-1,4,7,10-tetraazacyclododecan-1-yl]acetamido}methyl)cyclohexyl]-2,5,11,13-tetraazahexadecane-10,14,16-tricarboxylic acid] | –
2 | 98% | 86% | NC[C@H]1CC[C@H](C(=O)N[C@@H](Cc2cc(F)c(F)c(F)c2)C(=O)NCCCC[C@H](NC(=O)N[C@@H](CCC(=O)O)C(=O)O)C(=O)O)CC1 [Example 6-A, N^6—{N-[(1r,4S)-4-(aminomethyl)cyclohexane-1-carbonyl]-3,4,5-trifluoro-L-phenylalanyl}-N^2-{[(1S)-1,3-dicarboxypropyl]carbamoyl}-L-lysine] | –
3 | 113% | 60% | CNCC[C@H]1CC[C@H](C(=O)N[C@H](Cc2cc(OC)c3ccccc3c2)C(=O)NCCCC[C@H](NC(=O)N[C@@H](CCC(=O)O)C(=O)O)C(=O)O)CC1 [Example 35-A, (3R,10S,14S)-3-[(4-methoxynaphthalen-2-yl)methyl]-1-{(1r,4S)-4-[2-(methylamino)ethyl]cyclohexyl}-1,4,12-trioxo-2,5,11,13-tetraazahexadecane-10,14,16-tricarboxylic acid] | –
4 | 78% | 66% | Cn1ccc(C(=O)NCCN(CCNC(=O)c2ccn(C)c(=O)c2O)CC(Cc2ccc(NC(=O)CCC(=O)N[C@H](CCCNC(=N)N)C(=O)N[C@H](CCCNC(=N)N)C(=O)NC[C@H]3CC[C@H](C(=O)N[C@@H](Cc4ccc5ccccc5c4)C(=O)NCCCCC(NC(=O)N[C@@H](CCC(=O)O)C(=O)O)C(=O)O)CC3)cc2)CN(CCNC(=O)c2ccn(C)c(=O)c2O)CCNC(=O)c2ccn(C)c(=O)c2O)c(O)c1=O (stereo partly drawn) [Example 46-E] | –
5 | 114% | 40% | COc1c(C[C@@H](NC(=O)[C@H]2CC[C@H](CNC(=O)CN3CCN(CC(=O)O)CCN(CC(=O)O)CCN(CC(=O)O)CC3)CC2)C(=O)NCCCC[C@H](NC(=O)N[C@@H](CCC(=O)O)C(=O)O)C(=O)O)ccc2ccccc12 [Example 33-B, (3R,10S,14S)-3-[(1-methoxynaphthalen-2-yl)methyl]-1,4,12-trioxo-1-[(1r,4S)-4-({2-[4,7,10-tris(carboxymethyl)-1,4,7,10-tetraazacyclododecan-1-yl]acetamido}methyl)cyclohexyl]-2,5,11,13-tetraazahexadecane-10,14,16-tricarboxylic acid] | –
6 | 55% | 12% | O=C(O)CC[C@H](NC(=O)N[C@@H](CCCCNC(=O)[C@H](Cc1ccc2ccccc2n1)NC(=O)[C@H]1CC[C@H](CNC(=O)CN2CCN(CC(=O)O)CCN(CC(=O)O)CCN(CC(=O)O)CC2)CC1)C(=O)O)C(=O)O [Example 17-B, N^6-{3-(quinolin-2-yl)-N-[(1r,4S)-4-({2-[4,7,10-tris(carboxymethyl)-1,4,7,10-tetraazacyclododecan-1-yl]acetamido}methyl)cyclohexane-1-carbonyl]-L-alanyl}-N^2-{[(1S)-1,3-dicarboxypropyl]carbamoyl}-L-lysine] | best competition amongst all quinoline isomer examples
7 | 113% | 40% | NC[C@H]1CC[C@H](C(=O)N[C@@H](Cc2cnc3ccccc3c2)C(=O)NCCCC[C@H](NC(=O)N[C@@H](CCC(=O)O)C(=O)O)C(=O)O)CC1 [Example 22-A, N^6—{N-[(1r,4S)-4-(aminomethyl)cyclohexane-1-carbonyl]-3-(quinolin-3-yl)-L-alanyl}-N^2-{[(1S)-1,3-dicarboxypropyl]carbamoyl}-L-lysine] | –
8 | 84% | 79% | COc1ccc(CC(NC(=O)[C@H]2CC[C@H](CN)CC2)C(=O)NCCCC[C@H](NC(=O)N[C@@H](CCC(=O)O)C(=O)O)C(=O)O)cc1OC (stereo partly drawn) [Example 19-A, N^6—{N-[(1r,4S)-4-(aminomethyl)cyclohexane-1-carbonyl]-3-methoxy-O-methyl-L-tyrosyl}-N^2-{[(1S)-1,3-dicarboxypropyl]carbamoyl}-L-lysine] | –
9 | 65% | 44% | NCc1ccc(C(=O)N[C@@H](Cc2ccc3ncccc3c2)C(=O)NCCCC[C@H](NC(=O)N[C@@H](CCC(=O)O)C(=O)O)C(=O)O)nc1 [Example 49-A, (3S,10S,14S)-1-[5-(aminomethyl)pyridin-2-yl]-1,4,12-trioxo-3-[(quinolin-6-yl)methyl]-2,5,11,13-tetraazahexadecane-10,14,16-tricarboxylic acid] | –
10 | 90% | 47% | O=C(O)CC[C@H](NC(=O)N[C@@H](CCCCNC(=O)[C@@H](Cc1ccc2cccnc2c1)NC(=O)[C@H]1CC[C@H](CNC(=O)CN2CCN(CC(=O)O)CCN(CC(=O)O)CCN(CC(=O)O)CC2)CC1)C(=O)O)C(=O)O [Example 45-B, (3R,10S,14S)-1,4,12-trioxo-3-[(quinolin-7-yl)methyl]-1-[(1r,4S)-4-({2-[4,7,10-tris(carboxymethyl)-1,4,7,10-tetraazacyclododecan-1-yl]acetamido}methyl)cyclohexyl]-2,5,11,13-tetraazahexadecane-10,14,16-tricarboxylic acid] | –
11 | 79% | 67% | NCc1ccc(C(=O)N[C@@H](Cc2ccc3ccccc3c2)C(=O)NCCCC[C@H](NC(=O)N[C@H](CCC(=O)O)C(=O)O)C(=O)O)nc1 [Example 25-A-D, (3S,10S,14R)-1-[5-(aminomethyl)pyridin-2-yl]-3-[(naphthalen-2-yl)methyl]-1,4,12-trioxo-2,5,11,13-tetraazahexadecane-10,14,16-tricarboxylic acid] | –
12 | 106% | 112% | NCC1CCC(C(=O)N[C@@H](CCCNC(N)=O)C(=O)NCCCC[C@H](NC(=O)N[C@@H](CCC(=O)O)C(=O)O)C(=O)O)CC1 (stereo partly drawn) [Example 4-A, N^6—{N^2-[(1r,4S)-4-(aminomethyl)cyclohexane-1-carbonyl]-N^5-carbamoyl-L-ornithyl}-N^2-{[(1S)-1,3-dicarboxypropyl]carbamoyl}-L-lysine] | –
13 | 92% | 111% | CC(C)(C)c1ccc(C[C@H](NC(=O)[C@H]2CC[C@H](CN)CC2)C(=O)NCCCC[C@H](NC(=O)N[C@@H](CCC(=O)O)C(=O)O)C(=O)O)cc1 [Example 8-A, N^6—{N-[(1r,4S)-4-(aminomethyl)cyclohexane-1-carbonyl]-4-tert-butyl-L-phenylalanyl}-N^2-{[(1S)-1,3-dicarboxypropyl]carbamoyl}-L-lysine] | –

Row | SMILES | remaining activity at 0.01 µM | remaining activity at 0.1 µM | competition against 3H-PSMA-617 on PSMA-expressing LNCaP cells (in words)
14 | O=C(O)CC[C@H](NC(=O)N[C@@H](CCCCNC(=O)[C@H](Cc1ccc2ccccc2c1)NC(=O)c1ccc(CNC(=O)CN2CCN(CC(=O)O)CCN(CC(=O)O)CCN(CC(=O)O)CC2)cc1)C(=O)O)C(=O)O [Example 24-B, (3S,10S,14S)-3-[(naphthalen-2-yl)methyl]-1,4,12-trioxo-1-[4-({2-[4,7,10-tris(carboxymethyl)-1,4,7,10-tetraazacyclododecan-1-yl]acetamido}methyl)phenyl]-2,5,11,13-tetraazahexadecane-10,14,16-tricarboxylic acid] | 59% | 6% | –
15 | O=C(O)CC[C@H](NC(=O)N[C@@H](CCCCNC(=O)[C@H](Cc1ccc2ccccc2c1)NC(=O)[C@H]1CC[C@H](CNC(=O)CN2CCN(CC(=O)O)CCN(CC(=O)O)CCN(CC(=O)O)CC2)CC1)C(=O)O)C(=O)O [Example 1-B, (3S,10S,14S)-3-[(naphthalen-2-yl)methyl]-1,4,12-trioxo-1-[(1r,4S)-4-({2-[4,7,10-tris(carboxymethyl)-1,4,7,10-tetraazacyclododecan-1-yl]acetamido}methyl)cyclohexyl]-2,5,11,13-tetraazahexadecane-10,14,16-tricarboxylic acid, reference compound] | 66% | 17% | –
16 | O=C(O)CC[C@H](NC(=O)N[C@@H](CCCCNC(=O)[C@H](Cc1ccc2ccccc2c1)NC(=O)Cc1ccc(NC(=O)CN2CCN(CC(=O)O)CCN(CC(=O)O)CCN(CC(=O)O)CC2)cc1)C(=O)O)C(=O)O [Example 23-B, (4S,11S,15S)-4-[(naphthalen-2-yl)methyl]-2,5,13-trioxo-1-(4-{2-[4,7,10-tris(carboxymethyl)-1,4,7,10-tetraazacyclododecan-1-yl]acetamido}phenyl)-3,6,12,14-tetraazaheptadecane-11,15,17-tricarboxylic acid] | 66% | 18% | –
17 | O=C(O)CC[C@H](NC(=O)N[C@@H](CCCCNC(=O)[C@H](Cc1ccc2ccccc2c1)NC(=O)c1ccc(CNC(=O)CN2CCN(CC(=O)O)CCN(CC(=O)O)CCN(CC(=O)O)CC2)cn1)C(=O)O)C(=O)O [Example 25-B, (3S,10S,14S)-3-[(naphthalen-2-yl)methyl]-1,4,12-trioxo-1-[5-({2-[4,7,10-tris(carboxymethyl)-1,4,7,10-tetraazacyclododecan-1-yl]acetamido}methyl)pyridin-2-yl]-2,5,11,13-tetraazahexadecane-10,14,16-tricarboxylic acid] | 54% | 5% | improved competition in comparison to the cyclohexyl examples 1-A and 1-B
